In US12234233B2, “Crystal form of phosphodiesterase inhibitor, preparation method therefor and use thereof” (TRANSTHERA SCIENCES (NANJING), INC., priority 2019, dated 2025):
Where two headings read alike, the source gives them in different places.

Legend:
[1] = Pharmacokinetic evaluation in rats; assay type: in vivo, male SD rats
Description: Test substances: the compound of formula (I) was prepared by example 1 of the present invention, and the crystal form I was prepared by example 2 of the present invention.
Administration to Animals and Sample Collection:
(§1) the compound of formula (I) for the experiment was dissolved with 2% DMSO+10% PEG400+88% (28% HP-3-CD) physiological saline to prepare a solution; the solution of the test substance was administered to SD rats by gavage at a dose of 5.0 mg/kg; and the blood sampling time points were 15 min, 30 min, 1 h, 2 h, 4 h, 6 h, 8 h and 24 h after administration.
as §1, with “The compound” for “the compound”, “by intravenous bolus” for “by gavage”, “of 1” for “of 5.0”, “were 5 min,” for “were”
The crystal form I for the experiment was dissolved with 5% DMSO+10% PEG400+85% (20% captisol) physiological saline solution to prepare a solution; the solution of the test substance was administered to SD rats by gavage at a dose of 60.0 mg/kg; and the blood sampling time points were 15 min, 30 min, 1 h, 2 h, 4 h, 8 h, 24 h, 30 h and 48 h after administration.
The crystal form I for the experiment was dissolved with 2% DMSO+10% PEG400+88% (28% HP-β-CD) physiological saline to prepare a solution; the solution of the test substance was administered to SD rats by intravenous bolus at a dose of 5 mg/kg; and the blood sampling time points were 5 min, 15 min, 30 min, 1 h, 4 h, 8 h, 12 h and 24 h after administration.
Compound of formula (I): the ordinary SD rats were used and fixed; the tails of the rats were heated in a water bath 10 minutes before each time point; and about 100 μL of blood was collected via a tail vein, and then placed in an anticoagulation tube containing EDTA-K2. The blood sample was centrifuged at 8000 rpm at 4° C. for 6 min to obtain a plasma sample, which was prepared within 30 minutes after blood collection. The plasma was stored in a refrigerator at −80° C. before the test.
Crystal form I: the rats were subjected to jugular vein cannulation (JVC); each time, about 0.35 ml of blood was collected from the rats via a jugular vein cannula into a centrifuge tube containing 5 μl of 15% EDTA-K2; the mixture was gently mixed to obtain a homogeneous mixture, and then the centrifuge tube was placed in an ice bath immediately. Within 1 hour after collecting whole blood, the mixture was centrifuged at 4° C. and 2400×g for 5 minutes, and the supernatant was immediately collected to obtain a plasma sample. The plasma was stored in a refrigerator at −80° C. before the test.
the plasma sample to be tested was taken out from the −80° C. refrigerator, subjected to natural melting at room temperature, and then vortexed for 5 min; […] of the plasma sample was precisely pipetted into a 1.5 mL centrifuge tube; […] of the internal standard working solution (tolbutamide in methanol) at a concentration of 100 ng/mL was added, and the mixture was mixed homogeneously; the homogeneous mixture was vortexed for 5 min, and then centrifuged at 12000 rpm for 5 min; 50 μL of the supernatant was precisely pipetted into a 96-well plate pre-filled with 150 μL of water/well; and the plate was vortexed for 5 min for homogenization, and subjected to LC-MS/MS assay, with a sample loading volume of 5 μL. […]

[2] = Stability test of different crystal forms; assay type: physicochemical
Description: Test substances: the crystal form I was prepared by example 2 of the present invention, the crystal form II was prepared by example 16 of the present invention, the crystal form III was prepared by example 20 of the present invention, the crystal form IV was prepared by example 24 of the present invention, the crystal form V was prepared by example 25 of the present invention, the crystal form VI was prepared by example 27 of the present invention, and the crystal form VII was prepared by example 31 of the present invention.
Method: the appropriate amount of different test substances were taken, and placed at 105° C. for 3 days, and at 60° C. and RH 92.5% under light for 5 days and 10 days, respectively; and the samples were collected on day 0, day 3, day 5 and day 10 to investigate the changes in the trait and content of the samples.
Table 5 and Table 6 show the results of the trait and content after placement at 105° C. for 3 days. Table 7 and Table 8 show the results of the trait and content after placement at 60° C. and RH 92.5% under light for 5 days. Table 9 and Table 10 show the results of the trait and content after placement at RH 92.5% under light for 10 days.

[3] = Stability test of crystal form I (influencing factors); assay type: physicochemical
Description: Test substances: the crystal form I was prepared by example 2 of the present invention.
Method: the appropriate amount of crystal form I samples were taken and placed openly at 60° C. and RH 92.5% under light; and the samples were collected on day 5, day 10, and day 30 to investigate changes in the trait, content, and moisture of the samples.

[4] = male SD rats, gavage 60.0 mg/kg
[5] = male SD rats, intravenous bolus 5 mg/kg
[6] = Placed openly at 60° C. for 5 days
[7] = Placed openly at 60° C. for 10 days
[8] = Placed openly at 60° C. for 30 days
[9] = Placed openly at RH 92.5% for 5 days
[10] = Placed openly at RH 92.5% for 10 days
[11] = Placed openly at RH 92.5% for 30 days
[12] = Placed openly under light for 5 days
[13] = Placed openly under light for 10 days
[14] = placed openly under light for 30 days

CCc1cc2c(N3CCC(C)(OC)CC3)c(C#N)c(=O)[nH]c2cn1 [Crystal form I, 6-ethyl-4-(4-methoxy-4-methylpiperidin-1-yl)-2-oxo-1,2-dihydro-1,7-diazanaphthal ene-3-carbonitrile]
Tmax ([1]; Sprague-Dawley, rat, plasma, po, male SD rats, gavage 60.0 mg/kg): 1.67 h | AUC(0-t) ([1]; Sprague-Dawley, rat, plasma, po, male SD rats, gavage 60.0 mg/kg, read-out: AUClast PO): 40100 ng·h/mL | AUC(0-t) ([1]; Sprague-Dawley, rat, plasma, male SD rats, intravenous bolus 5 mg/kg, read-out: AUClast iv): 2450 ng·h/mL | pharmacokinetic characteristics ([1]; conclusion from Table 2, rats): excellent pharmacokinetic characteristics | AUClast PO/Dose [1, 4]: 667.8 h*ng/mL per mg/kg | tz1/2 PO [1, 4]: 3.91 h | AUClast iv/Dose [1, 5]: 489.4 h*ng/mL per mg/kg | Cl_obs iv [1, 5]: 35.5 mL/min/kg | Vz_obs iv [1, 5]: 0.898 L/kg | tz1/2 iv [1, 5]: 0.453 h | Content ([2]; 0 day): 99.7% | Trait ([2]; 0 day): Yellow powder | Content ([2]; Placed at 60° C. for 5 days): 99.8% | Content ([2]; Placed at RH 92.5% for 5 days): 99.7% | Content ([2]; Placed at RH 92.5% for 10 days): 100.3% | Trait ([2]; Placed at RH 92.5% for 10 days): Yellow powder | Content ([2]; Placed under light for 5 days): 99.7% | Content ([2]; Placed under light for 10 days): 99.3% | Trait ([2]; Placed under light for 10 days): Yellow powder | Content ([3]; 0 day): 99.7% | Moisture ([3]; 0 day): 0.08% | Trait ([3]; 0 day): Yellow powder | Content [3, 6]: 99.8% | Moisture [3, 6]: 0.06% | Trait [3, 6]: Yellow powder | Content [3, 7]: 99.8% | Moisture [3, 7]: 0.10% | Trait [3, 7]: Yellow powder | Content [3, 8]: 100.1% | Moisture [3, 8]: 0.12% | Trait [3, 8]: Yellow powder | Content [3, 9]: 99.7% | Moisture [3, 9]: 0.04% | Trait [3, 9]: Yellow powder | Content [3, 10]: 100.3% | Moisture [3, 10]: 0.09% | Trait [3, 10]: Yellow powder | Content [3, 11]: 100.5% | Moisture [3, 11]: 0.09% | Trait [3, 11]: Yellow powder | Content [3, 12]: 99.7% | Moisture [3, 12]: 0.06% | Trait [3, 12]: Yellow powder | Content [3, 13]: 99.3% | Moisture [3, 13]: 0.13% | Trait [3, 13]: Yellow powder | Content [3, 14]: 100.0% | Moisture [3, 14]: 0.09% | Trait [3, 14]: Yellow powder
